Results from patent publication US20240246916A1, “7-NITRO-8-HYDROXYQUINOLINE DERIVATIVES, PREPARATION METHOD THEREFORE AND MEDICAL USE THEREOF” (Jiangsu Yahong Meditech Co., Ltd., priority 2021, published 2024).
≈ marks a conversion by molar mass, not a printed value. Where two headings read alike, the source gives them in different places.

Tests used:
Format in all cases: cell-based
[1] = test system: Escherichia coli (carbapenem-resistant clinical isolate; ATCC25922); assay: MIC by micro broth dilution (CLSI), Escherichia coli; conditions: Escherichia coli
Description: (§1) The test bacteria were one strain of clinically isolated carbapenem-resistant Escherichia coli, two strains of carbapenem-resistant Acinetobacter baumannii, two strains of methicillin-resistant Staphylococcus aureus, two strains of sensitive Staphylococcus aureus, and 7 strains of Klebsiella pneumoniae. Duplicate strains isolated from the same patient were eliminated. There were also […] quality control strains Escherichia coli ATCC25922, Acinetobacter baumannii ATCC19606, Staphylococcus aureus ATCC29213, Klebsiella pneumoniae ATCC BAA-1705, ATCC 43816, ATCC BAA-2472, ATCC-BAA-1898, ATCC-BAA-1899, NCTC 13440 and ATCC-BAA-2470. There were 24 strains in total.
(§2) According to the recommendations of relevant documents of the American Clinical and Laboratory Standards Institute (CLSI), the micro broth dilution method was used to determine the MIC of the compounds of the present invention against clinically isolated strains. • 3.1 Formulation of antibacterial drug: All the compounds of the present invention were dissolved in DMSO. The drug concentration range was 128 mg/L to 0.06 mg/L. • 3.2 Culture medium: The drug susceptibility test used cation adjusted Mueller-Hinton broth (CAMHB). • 3.3 Amount of inoculum: The test bacteria cultured overnight were adjusted to 0.5 McFarland turbidity by the direct colony suspension method, and diluted 100 folds, the final inoculum amount was 10^5 CFU/mL. • 3.4 Culture conditions: The test bacteria were cultured at 35±2° C. for 20 hours in air.
(§3) The drug susceptibility test results were interpretated by reference to CLSI 2019 M100 29th edition criteria.
(§4) The quality control strains of the drug susceptibility test were Escherichia coli ATCC 25922, Acinetobacter baumannii ATCC 19606, Staphylococcus aureus ATCC 29213, Klebsiella pneumoniae ATCC BAA-1705, ATCC 43816, ATCC BAA-2472, ATCC-BAA-1898, ATCC-BAA-1899, NCTC 13440 and ATCC-BAA-2470.
(§5) The results of drug susceptibility test were statistically analyzed by WHONET software (version 5.6).

[2] = test system: Staphylococcus aureus (methicillin-resistant and sensitive clinical isolates; ATCC29213); assay: MIC by micro broth dilution (CLSI), Staphylococcus aureus
Description: as §1, §2, §3, §4, §5

[3] = test system: Acinetobacter baumannii (carbapenem-resistant clinical isolates; ATCC19606); assay: MIC by micro broth dilution (CLSI), Acinetobacter baumannii; conditions: Acinetobacter baumannii; for MIC50 / MIC90: ATCC19606
Description: as §1, §2, §3, §4, §5

[4] = ATCC25922, Clinical strain, read-out: MIC50
[5] = ATCC25922, Clinical strain, read-out: MIC90
[6] = Standard strain ATCC25922, read-out: MIC
[7] = Clinical strain, read-out: MIC50
[8] = Clinical strain, read-out: MIC90
[9] = Standard strain ATCC29213, read-out: MIC
[10] = Standard strain ATCC19606, read-out: MIC

Compound	MIC50 [1, 4] [µg/mL]	MIC90 [1, 5] [µg/mL]	MIC [1, 6] [µg/mL]	MIC50 [2, 7] [µg/mL]	MIC90 [2, 8] [µg/mL]	MIC [2, 9] [µg/mL]	MIC50 [3, 7] [µg/mL]	MIC90 [3, 8] [µg/mL]	MIC [3, 10] [µg/mL]	MIC50 ([1]; clinical strains, micro broth dilution, CAMHB, 35±2° C., 20 hours, read-out: MIC50 Escherichia coli Clinical strain) [µg/mL]	MIC90 ([1]; clinical strains, micro broth dilution, CAMHB, 35±2° C., 20 hours, read-out: MIC90 Escherichia coli Clinical strain) [µg/mL]	MIC ([1]; standard strain ATCC25922, micro broth dilution, CAMHB, 35±2° C., 20 hours, read-out: MIC Escherichia coli Standard strain ATCC25922) [µg/mL]	MIC50 ([2]; clinical strains, micro broth dilution, CAMHB, 35±2° C., 20 hours, read-out: MIC50 Staphylococcus aureus Clinical strain) [µg/mL]	MIC90 ([2]; clinical strains, micro broth dilution, CAMHB, 35±2° C., 20 hours, read-out: MIC90 Staphylococcus aureus Clinical strain) [µg/mL]	MIC ([2]; standard strain ATCC29213, micro broth dilution, CAMHB, 35±2° C., 20 hours, read-out: MIC Staphylococcus aureus Standard strain ATCC29213) [µg/mL]	MIC50 ([3]; clinical strains, micro broth dilution, CAMHB, 35±2° C., 20 hours, read-out: MIC50 Acinetobacter baumannii Clinical strain) [µg/mL]	MIC90 ([3]; clinical strains, micro broth dilution, CAMHB, 35±2° C., 20 hours, read-out: MIC90 Acinetobacter baumannii Clinical strain) [µg/mL]	MIC ([3]; standard strain ATCC19606, micro broth dilution, CAMHB, 35±2° C., 20 hours, read-out: MIC Acinetobacter baumannii Standard strain ATCC19606) [µg/mL]
O=[N+]([O-])c1ccc2c(CN3CCCCC3)ccnc2c1O [Example 85, 7-nitro-4-(piperidin-1-yl-methyl)quinolin-8-ol]	64 (≈ 223 µM)	64 (≈ 223 µM)	64 (≈ 223 µM)	16 (≈ 55.7 µM)	64 (≈ 223 µM)	64 (≈ 223 µM)	32 (≈ 111 µM)	64 (≈ 223 µM)	32 (≈ 111 µM)									
O=[N+]([O-])c1ccc2c(OC(F)F)ccnc2c1O [Example 77, 4-(difluoromethoxy)-7-nitroquinolin-8-ol]	16 (≈ 62.5 µM)	128 (≈ 500 µM)	16 (≈ 62.5 µM)	8 (≈ 31.2 µM)	8 (≈ 31.2 µM)	8 (≈ 31.2 µM)	16 (≈ 62.5 µM)	32 (≈ 125 µM)	8 (≈ 31.2 µM)									
CN(C)Cc1cc([N+](=O)[O-])c(O)c2nccc(C(F)(F)F)c12 [Example 104, 5-((dimethylamino)methyl)-7-nitro-4-(trifluoromethyl)quinolin-8-ol]	> 128	> 128	128 (≈ 406 µM)	> 128	> 128	> 128	> 128	> 128	> 128									
O=[N+]([O-])c1cc(Br)c2cccnc2c1O [Example 121, 5-bromo-7-nitroquinolin-8-ol]										128 (≈ 476 µM)	128 (≈ 476 µM)	16 (≈ 59.5 µM)	4 (≈ 14.9 µM)	16 (≈ 59.5 µM)	8 (≈ 29.7 µM)	16 (≈ 59.5 µM)	32 (≈ 119 µM)	8 (≈ 29.7 µM)
C#Cc1ccnc2c(O)c([N+](=O)[O-])ccc12 [Example 80, 4-ethynyl-7-nitroquinolin-8-ol]	> 128	> 128	> 128	128 (≈ 598 µM)	128 (≈ 598 µM)	128 (≈ 598 µM)	> 128	> 128	> 128									

Now from value to molecule:

MIC50 [1, 4] [µg/mL]	MIC90 [1, 5] [µg/mL]	MIC [1, 6] [µg/mL]	MIC50 [2, 7] [µg/mL]	MIC90 [2, 8] [µg/mL]	MIC [2, 9] [µg/mL]	MIC50 [3, 7] [µg/mL]	MIC90 [3, 8] [µg/mL]	MIC [3, 10] [µg/mL]	MIC50 ([1]; clinical strains, micro broth dilution, CAMHB, 35±2° C., 20 hours, read-out: MIC50 Escherichia coli Clinical strain) [µg/mL]	MIC90 ([1]; clinical strains, micro broth dilution, CAMHB, 35±2° C., 20 hours, read-out: MIC90 Escherichia coli Clinical strain) [µg/mL]	MIC ([1]; standard strain ATCC25922, micro broth dilution, CAMHB, 35±2° C., 20 hours, read-out: MIC Escherichia coli Standard strain ATCC25922) [µg/mL]	MIC50 ([2]; clinical strains, micro broth dilution, CAMHB, 35±2° C., 20 hours, read-out: MIC50 Staphylococcus aureus Clinical strain) [µg/mL]	MIC90 ([2]; clinical strains, micro broth dilution, CAMHB, 35±2° C., 20 hours, read-out: MIC90 Staphylococcus aureus Clinical strain) [µg/mL]	MIC ([2]; standard strain ATCC29213, micro broth dilution, CAMHB, 35±2° C., 20 hours, read-out: MIC Staphylococcus aureus Standard strain ATCC29213) [µg/mL]	MIC50 ([3]; clinical strains, micro broth dilution, CAMHB, 35±2° C., 20 hours, read-out: MIC50 Acinetobacter baumannii Clinical strain) [µg/mL]	MIC90 ([3]; clinical strains, micro broth dilution, CAMHB, 35±2° C., 20 hours, read-out: MIC90 Acinetobacter baumannii Clinical strain) [µg/mL]	MIC ([3]; standard strain ATCC19606, micro broth dilution, CAMHB, 35±2° C., 20 hours, read-out: MIC Acinetobacter baumannii Standard strain ATCC19606) [µg/mL]	Compound
> 128	> 128	> 128	16 (≈ 49.1 µM)	128 (≈ 393 µM)	128 (≈ 393 µM)	128 (≈ 393 µM)	> 128	> 128										O=[N+]([O-])c1cc(Cl)c2c(N3CCCC(F)C3)ccnc2c1O (stereo not drawn) [Example 119, 5-chloro-4-(3-fluoropiperidin-1-yl)-7-nitroquinolin-8-ol]
> 128	> 128	> 128	8 (≈ 23.3 µM)	128 (≈ 372 µM)	128 (≈ 372 µM)	128 (≈ 372 µM)	> 128	> 128										O=[N+]([O-])c1cc(Cl)c2c(N3CCCC(F)(F)C3)ccnc2c1O [Example 118, 5-chloro-4-(3,3-difluoropiperidin-1-yl)-7-nitroquinolin-8-ol]
> 128	> 128	> 128	> 128	> 128	> 128	> 128	> 128	> 128										O=[N+]([O-])c1cc(Cl)c2c(N3CCCC(c4ccccc4)C3)ccnc2c1O (stereo not drawn) [Example 111, 5-chloro-7-nitro-4-(3-phenylpiperidin-1-yl)quinolin-8-ol]
16 (≈ 70.9 µM)	16 (≈ 70.9 µM)	8 (≈ 35.5 µM)	4 (≈ 17.7 µM)	4 (≈ 17.7 µM)	4 (≈ 17.7 µM)	8 (≈ 35.5 µM)	16 (≈ 70.9 µM)	8 (≈ 35.5 µM)										[2H]c1ccc2c(Cl)cc([N+](=O)[O-])c(O)c2n1 [Example 113, 5-chloro-7-nitroquinolin-2-d-8-ol]
128 (≈ 536 µM)	128 (≈ 536 µM)	32 (≈ 134 µM)	4 (≈ 16.8 µM)	4 (≈ 16.8 µM)	4 (≈ 16.8 µM)	32 (≈ 134 µM)	64 (≈ 268 µM)	16 (≈ 67 µM)										Cc1cnc2c(O)c([N+](=O)[O-])cc(Cl)c2c1 [Example 83, 5-chloro-3-methyl-7-nitroquinolin-8-ol]
